Results as given in patent publication US20030229053A1, “Compounds and methods for the treatment or prevention of flavivirus infections” (Shire BioChem Inc., priority 2001, published 2003).

These compounds were tested against recombinant HCV NS5B (Hepatitis C virus genotype 1b, UniProt P26663) (assay: biochemical). Conditions: flashplate, polyrA/biotinylated-oligo dT, 100 nM NS5B, 2 hrs at room temperature; read-out: RNA pol Assay 2 IC50 (μm).
Chain of recombinant HCV NS5B (P26663 2420-3010 limits assumed): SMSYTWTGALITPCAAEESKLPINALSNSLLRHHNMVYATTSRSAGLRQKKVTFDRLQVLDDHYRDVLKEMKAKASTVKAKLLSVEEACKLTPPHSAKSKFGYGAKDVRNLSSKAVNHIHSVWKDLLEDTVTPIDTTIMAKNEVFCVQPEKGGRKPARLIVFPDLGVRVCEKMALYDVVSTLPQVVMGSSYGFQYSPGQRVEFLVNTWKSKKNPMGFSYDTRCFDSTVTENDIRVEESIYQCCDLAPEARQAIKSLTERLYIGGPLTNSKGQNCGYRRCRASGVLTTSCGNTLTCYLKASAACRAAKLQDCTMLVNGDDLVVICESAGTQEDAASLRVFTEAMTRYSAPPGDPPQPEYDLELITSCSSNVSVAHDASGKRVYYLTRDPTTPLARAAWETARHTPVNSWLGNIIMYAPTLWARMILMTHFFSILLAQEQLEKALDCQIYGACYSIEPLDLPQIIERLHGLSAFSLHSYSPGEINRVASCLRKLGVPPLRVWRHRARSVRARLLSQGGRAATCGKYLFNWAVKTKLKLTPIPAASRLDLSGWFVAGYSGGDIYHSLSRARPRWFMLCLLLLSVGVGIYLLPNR
Description: In vitro HCV RdRp Flashplate Scintillation Proximity Assay (Strep-Flash Assay) Used to Evaluate Analogues:
In brief, a 400 ng/μl polyrA solution (Amersham Pharmacia Biotech) was mixed volume-to-volume with 5′ biotin-oligo dT12 at 20 pmol/μl. The template and primers were denatured at 95 C for 5 minutes then incubated at 37 C for 10 minutes. Annealed template-primers were subsequently diluted in a Tris-HCl containing buffer and allowed to bind to streptavidin-coated flashplates overnight.
`N#Cc1cccc(CN(C(=O)c2ccc(Cl)cc2Cl)[C@@H](Cc2ccccc2)C(=O)O)c1` [compound #54, (2S)-2-[(3-Cyano-benzyl)-(2,4-dichloro-benzoyl)-amino]-3-phenyl-propionic acid] was tested, and the IC50 was < 5 µM. `O=C(O)[C@H](Cc1ccccc1)N(Cc1cnc(-c2cccc([N+](=O)[O-])c2)s1)C(=O)c1ccc(Cl)cc1Cl` [compound #64, 2-{(2,4-Dichloro-benzoyl)-[2-(3-nitro-phenyl)-thiazol-5-ylmethyl]-amino}-3-phenyl-propionic acid] was tested, and the IC50 was < 5 µM. With `O=C(O)[C@H](Cc1ccccc1)N(Cc1cnc(-c2cc3ccccc3o2)s1)C(=O)c1ccc(Cl)cc1Cl` [compound #86, 2-[(2-Benzofuran-2-yl-thiazol-5-ylmethyl)-(2,4-dichloro-benzoyl)-amino]-3-phenyl-propionic acid] the IC50 was < 5 µM. With `O=C(O)[C@H](Cc1ccccc1)N(Cc1cnc(Cl)s1)C(=O)c1ccc(Cl)cc1Cl` [compound #140, (2s)-2-[(2-Chloro-thiazol-5-ylmethyl)-(2,4-dichloro-benzoyl)-amino]-3-phenyl-propionic acid] the IC50 was < 5 µM. `O=C(O)[C@H](Cc1ccccc1)N(Cc1ccc(-c2ccc(F)cc2)s1)C(=O)c1ccc(Cl)cc1Cl` [compound #141, (2s)-2-{(2,4-Dichloro-benzoyl)-[5-(4-fluoro-phenyl)-thiophen-2-ylmethyl]-amino}-3-phenyl-propionic acid] was tested, and the IC50 was < 5 µM. In the case of `O=C(O)[C@H](Cc1ccccc1)N(Cc1sccc1-c1ccc(F)c(Cl)c1)C(=O)c1ccc(Cl)cc1Cl` [compound #145, (2s)-2-[[3-(3-Chloro-4-fluoro-phenyl)-thiophen-2-ylmethyl]-(2,4-dichloro-benzoyl)-amino]-3-phenyl-propionic acid], the IC50 is reported as 5 to 20 µM. With `O=C(O)[C@H](Cc1ccccc1)N(Cc1sccc1Br)C(=O)c1ccc(Cl)cc1Cl` [compound #146, (2s)-2-[(3-Bromo-thiophen-2-ylmethyl)-(2,4-dichloro-benzoyl)-amino]-3-phenyl-propionic acid] the IC50 was < 5 µM. With `CC(C)(C(=O)O)N(Cc1ccc(-c2cccc(C(F)(F)F)c2)o1)C(=O)c1ccc(Cl)cc1Cl` [compound #147, (2s)-2-{(2,4-Dichloro-benzoyl)-[5-(3-trifluoromethyl-phenyl)-furan-2-ylmethyl]-amino}-2-methyl-propionic acid] the IC50 was 5 to 20 µM. With `O=C(O)[C@H](Cc1ccccc1)N(Cc1cnc(-c2cccc(C(F)(F)F)c2)s1)C(=O)c1ccc(Cl)cc1Cl` [compound #148, (2s)-2-{(2,4-Dichloro-benzoyl)-[2-(3-trifluoromethyl-phenyl)-thiazol-5-ylmethyl]-amino}-3-phenyl-propionic acid] the IC50 was < 5 µM. With `O=C(O)[C@H](Cc1ccccc1)N(Cc1csc([N+](=O)[O-])c1)C(=O)c1ccc(Cl)cc1Cl` [compound #149, (2s)-2-[(2,4-Dichloro-benzoyl)-(5-nitro-thiophen-3-ylmethyl)-amino]-3-phenyl-propionic acid] the IC50 was < 5 µM. In the case of `CS(=O)(=O)c1ccc(CN(C(=O)c2ccc(Cl)cc2Cl)[C@@H](Cc2ccccc2)C(=O)O)cc1` [compound #150, (2s)-2-[(2,4-Dichloro-benzoyl)-(4-methanesulfonyl-benzyl)-amino]-3-phenyl-propionic acid], the IC50 is reported as < 5 µM. `COc1cccc(CN(C(=O)c2ccc(Cl)cc2Cl)[C@@H](Cc2ccccc2)C(=O)O)c1` [compound #151, (2s)-2-[(2,4-Dichloro-benzoyl)-(3-methoxy-benzyl)-amino]-3-phenyl-propionic acid] was tested, and the IC50 was < 5 µM. For `Cc1cccc(CN(C(=O)c2ccc(Cl)cc2Cl)[C@@H](Cc2ccccc2)C(=O)O)c1` [compound #152, (2s)-2-[(2,4-Dichloro-benzoyl)-(3-methyl-benzyl)-amino]-3-phenyl-propionic acid], the IC50 was < 5 µM. Work on `Cn1nc(C(F)(F)F)c(CN(C(=O)c2ccc(Cl)cc2Cl)[C@@H](Cc2ccccc2)C(=O)O)c1Oc1cccc(Cl)c1` [compound #153, (2s)-2-[[5-(3-Chloro-phenoxy)-1-methyl-3-trifluoromethyl-1h-pyrazol-4-ylmethyl]-(2,4-dichloro-benzoyl)-amino]-3-phenyl-propionic acid] yielded an IC50 of 5 to 20 µM. For `O=C(O)[C@H](Cc1ccccc1)N(Cc1sccc1-c1cc(F)cc(F)c1)C(=O)c1ccc(Cl)cc1Cl` [compound #154, (2s)-2-{(2,4-Dichloro-benzoyl)-[3-(3,5-difluoro-phenyl)-thiophen-2-ylmethyl]-amino}-3-phenyl-propionic acid], the IC50 was < 5 µM. For `O=C(O)[C@H](Cc1ccccc1)N(Cc1sccc1-c1ccc(Cl)c(Cl)c1)C(=O)c1ccc(Cl)cc1Cl` [compound #155, (2s)-2-{(2,4-Dichloro-benzoyl)-[3-(3,4-dichloro-phenyl)-thiophen-2-ylmethyl]-amino}-3-phenyl-propionic acid], the IC50 was < 5 µM. In the case of `O=C(O)[C@H](Cc1ccccc1)N(Cc1sccc1-c1ccc(Cl)c(F)c1)C(=O)c1ccc(Cl)cc1Cl` [compound #156, (2s)-2-[[3-(4-Chloro-3-fluoro-phenyl)-thiophen-2-ylmethyl]-(2,4-dichloro-benzoyl)-amino]-3-phenyl-propionic acid], the IC50 is reported as 5 to 20 µM. In the case of `O=C(O)[C@H](Cc1ccccc1)N(Cc1sccc1-c1ccc(Cl)cc1Cl)C(=O)c1ccc(Cl)cc1Cl` [compound #157, (2s)-2-{(2,4-Dichloro-benzoyl)-[3-(2,4-dichloro-phenyl)-thiophen-2-ylmethyl]-amino}-3-phenyl-propionic acid], the IC50 is reported as 5 to 20 µM. For `Cc1cccc(-c2ccsc2CN(C(=O)c2ccc(Cl)cc2Cl)[C@@H](Cc2ccccc2)C(=O)O)c1` [compound #158, (2s)-2-[(2,4-Dichloro-benzoyl)-(3-m-tolyl-thiophen-2-ylmethyl)-amino]-3-phenyl-propionic acid], the IC50 was < 5 µM. Compound `CCOC(=O)c1ccccc1-c1ccsc1CN(C(=O)c1ccc(Cl)cc1Cl)[C@@H](Cc1ccccc1)C(=O)O` [compound #159, (2s)-2-(2-{[(1s-1-Carboxy-2-phenyl-ethyl)-(2,4-dichloro-benzoyl)-amino]-methyl}-thiophen-3-yl)-benzoic acid ethyl ester] has an IC50 of 5 to 20 µM. With `CCOC(=O)c1ccc(-c2ccsc2CN(C(=O)c2ccc(Cl)cc2Cl)[C@@H](Cc2ccccc2)C(=O)O)cc1` [compound #160, (2s)-4-(2-{[(1s-1-Carboxy-2-phenyl-ethyl)-(2,4-dichloro-benzoyl)-amino]-methyl}-thiophen-3-yl)-benzoic acid ethyl ester] the IC50 was < 5 µM. With `O=C(O)[C@H](Cc1ccccc1)N(Cc1sccc1-c1cccc(F)c1)C(=O)c1ccc(Cl)cc1Cl` [compound #161, (2s)-2-{(2,4-Dichloro-benzoyl)-[3-(3-fluoro-phenyl)-thiophen-2-ylmethyl]-amino}-3-phenyl-propionic acid] the IC50 was 5 to 20 µM. In the case of `N#Cc1cccc(-c2ccsc2CN(C(=O)c2ccc(Cl)cc2Cl)[C@@H](Cc2ccccc2)C(=O)O)c1` [compound #162, (2s)-2-[[3-(3-Cyano-phenyl)-thiophen-2-ylmethyl]-(2,4-dichloro-benzoyl)-amino]-3-phenyl-propionic acid], the IC50 is reported as < 5 µM. `O=C(O)C(c1cccs1)N(Cc1ccc(-c2cccc(C(F)(F)F)c2)o1)C(=O)c1ccc(Cl)cc1Cl` (stereo not drawn) [compound #163, {(2,4-Dichloro-benzoyl)-[5-(3-trifluoromethyl-phenyl)-furan-2-ylmethyl]-amino}-thiophen-2-yl-acetic acid] gave an IC50 of 5 to 20 µM. For `CC(C)(C)OC(=O)N1CCC[C@H]1CN(C(=O)c1ccc(Cl)cc1Cl)[C@@H](Cc1ccccc1)C(=O)O` [compound #164, L-2-{[(1-Carboxy-2-phenyl-ethyl)-(2,4-dichloro-benzoyl)-amino]-methyl}-pyrrolidine-1-carboxylic acid #tert!-butyl ester], the IC50 was 5 to 20 µM. `CC(C)(C)OC(=O)N1CCC[C@@H]1CN(C(=O)c1ccc(Cl)cc1Cl)[C@@H](Cc1ccccc1)C(=O)O` [compound #165, d-2-{[(1-carboxy-2-phenyl-ethyl)-(2,4-dichloro-benzoyl)-amino]-methyl}-pyrrolidine-1-carboxylic acid #tert!-butyl ester] showed an IC50 of 5 to 20 µM. Compound `O=C(O)[C@H](Cc1ccccc1)N(C(=O)c1ccc(Cl)cc1Cl)C1CCN(C(=O)OCc2ccccc2)CC1` [compound #166, 4-[(1-Carboxy-2-phenyl-ethyl)-(2,4-dichloro-benzoyl)-amino]-piperidine-1-carboxylic acid benzyl ester] has an IC50 of 5 to 20 µM. In the case of `O=C(O)[C@H](Cc1ccccc1)N(C[C@@H]1CCCN1)C(=O)c1ccc(Cl)cc1Cl` [compound #167, 1-2-[(2,4-Dichloro-benzoyl)-pyrrolidin-2-ylmethyl-amino]-3-phenyl-propionic acid], the IC50 is reported as 5 to 20 µM. `O=C(O)[C@H](Cc1ccccc1)N(Cc1cccnc1)C(=O)c1ccc(Cl)cc1Cl` [compound #170, 2-[(2,4-Dichloro-benzoyl)-pyridin-3-ylmethyl-amino]-3-phenyl-propionic acid] showed an IC50 of 5 to 20 µM. In the case of `O=C(O)C(Cc1ccccc1)N(Cc1ccc(C(F)(F)F)cc1)C(=O)c1ccc(Cl)cc1Cl` (stereo not drawn) [compound #171, 2-[(2,4-Dichloro-benzoyl)-(4-trifluoromethyl-benzyl)-amino]-3-phenyl-propionic acid], the IC50 is reported as 5 to 20 µM. In the case of `O=C(O)C(Cc1ccccc1)N(Cc1ccc(OCc2ccc(F)cc2)cc1)C(=O)c1ccc(Cl)cc1Cl` (stereo not drawn) [compound #172, 2-{(2,4-Dichloro-benzoyl)-[4-(4-fluoro-benzyloxy)-benzyl]-amino}-3-phenyl-propionic acid], the IC50 is reported as 5 to 20 µM. `O=C(O)C(Cc1ccccc1)N(Cc1ccc(F)c(C(F)(F)F)c1)C(=O)c1ccc(Cl)cc1Cl` (stereo not drawn) [compound #173, 2-[(2,4-Dichloro-benzoyl)-(4-fluoro-3-trifluoromethyl-benzyl)-amino]-3-phenyl-propionic acid] was tested, and the IC50 was 5 to 20 µM. `O=C(O)C(Cc1ccccc1)N(Cc1cccn1S(=O)(=O)c1ccccc1)C(=O)c1ccc(Cl)cc1Cl` (stereo not drawn) [compound #174, 2-[(1-Benzenesulfonyl-1h-pyrrol-2-ylmethyl)-(2,4-dichloro-benzoyl)-amino]-3-phenyl-propionic acid] showed an IC50 of 5 to 20 µM.
